Experimental data published in US7223403B2, “Method to prepare compositions comprising yeast treated with electromagnetic energy” (Ultra Biotech Limited, priority 2003, dated 2007).
Like-named read-outs stand apart in the source and are kept apart here.

Key:
[1] = system: Wistar King rat brain cancer cell line WKS-1; details: 2VCR 4.5 mg/kg/day i.v.; for Number of live animals remaining in the groups after 30 days of treatment: 30 rats per group
Experimental: The survival time of rats after tumor injection and treatment was studied.
(§1) The biological composition comprising 10^8 cells per ml of activated and conditioned yeast cells of the strain Saccharomyces cerevisiae Hansen strain AS2.501 was prepared by the methods described in Section 5.1 and subsections therein.
The animals were prepared in a similar manner as described in Section 8.1.
(§2) The rats injected with tumor cells were immediately divided into 4 experimental groups of ten rats per group and one control group. The four experimental groups were triplicated (i.e., using a total of 120 rats in the experimental groups). In group 2AY, the rats received 1.2 ml of the biological composition once per day. In group 2NY, the rats received 1.2 ml of the untreated yeast cells once per day. In group 2VCR, the rats were injected intravenously with 4.5 mg of vinblastine (VCR) per kg body weight per day. In group 2CK1, the rats received 1.2 ml of physiological saline once per day.
(§3) The rats received the biological compositions, untreated yeast cells, VCR, or saline on the same day as the tumor cells were transplanted. The rats in group 2CK2 also started receiving saline on the same day as the other four groups. The biological compositions, untreated yeast cells and saline were administered orally by a feeding tube and the VCR by intravenous injection for 30 consecutive days. The rats were observed over 6 months from the day of tumor inoculation and survival was recorded. The weight of the rats and the weight of the tumor were determined by standard techniques.

[2] = system: Wistar King rat brain cancer cell line WKS-1; test: Wistar rat model of human brain cancer, growth of the tumor (Example 8); assay type: in vivo; details: WKS-1 tumor-bearing rats, 30 consecutive days of treatment, sacrificed on 31st day; AY/NY 0.8 ml oral once per day, VCR 3 mg/kg/day i.v.
Experimental: The growth of the tumor in the rats was studied.
About 2×10^7 viable tumor cells of the Wistar King rat brain cancer type WKS-1 (obtainable from the Shanghai Medical University, Shanghai, China) in about 0.4 ml culture suspension were injected subcutaneously into the animals.
In group AY, the rats received 0.8 ml of the biological composition once per day. In group NY, the rats received 0.8 ml of the untreated yeast cells once per day. […] In group CK1, the rats received 0.8 ml of physiological saline once per day.
On the 31st day from tumor inoculation, the rats were sacrificed.

[3] = system: kun ming murine brain cancer cell line B22; details: 2BCNU 1.2 mg/kg/day s.c.; for Number of live animals remaining in the groups after 30 days of treatment: 30 mice per group
Experimental: The survival time of mice after tumor injection and treatment was studied.
as §1
The animals were prepared in a similar manner as described in Section 6.1.
as §2, with “mice” for “rats”, “0.5” for “1.2”, “2BCNU,” for “2VCR,”, “subcutaneously” for “intravenously”, “1.2” for “4.5”, “chloroethylnitrosourea (BCNU)” for “vinblastine (VCR)”
as §3, with “mice” for “rats”, “BCNU” for “VCR,”, “BCNU” for “VCR”, “subcutaneous” for “intravenous”

[4] = system: kun ming murine brain cancer cell line B22; test: kun ming mouse model of human brain cancer, growth of the tumor (Example 6); details: B22 tumor-bearing mice, 30 consecutive days of treatment, sacrificed on 31st day; AY/NY 0.3 ml oral once per day, BCNU 0.8 mg/kg/day s.c.
Experimental: as §1
The mice injected with tumor cells were immediately divided into 4 experimental groups of ten mice per group and one control group. The four experimental groups were triplicated (i.e., using a total of 120 mice in the experimental groups).
as §3, with “mice” for “rats”, “BCNU” for “VCR,”, “CK2” for “2CK2”, “BCNU” for “VCR”, “subcutaneous” for “intravenous”, “The rats were observed over 6 months from the day of tumor inoculation and survival was recorded.” left out

[5] = rats that survived, observed over 6 months, 2AY/2NY 1.2 ml oral per day, 30 days
[6] = mice that survived, observed over 6 months, 2AY/2NY 0.5 ml oral per day, 30 days

CC[C@]1(O)C[C@@H]2CN(CCc3c([nH]c4ccccc34)[C@@](C(=O)OC)(c3cc4c(cc3OC)N(C)[C@H]3[C@@](O)(C(=O)OC)[C@H](OC(C)=O)[C@]5(CC)C=CCN6CC[C@]43[C@@H]65)C2)C1 [VCR, vinblastine]
Number of live animals remaining in the groups after 30 days of treatment ([1]; 0 month after cessation of treatment, 2AY/2NY 1.2 ml oral per day): 30 | Number of live animals remaining in the groups after 30 days of treatment ([1]; 1 month after cessation of treatment, 2AY/2NY 1.2 ml oral per day): 30 | survival outcome during the experiment ([1]; 2NY 1.2 ml oral per day, 30 days, observed over 6 months): all died during the experiment | Number of live animals remaining in the groups after 30 days of treatment ([1]; 2 months after cessation of treatment, 2AY/2NY 1.2 ml oral per day): 30 | Number of live animals remaining in the groups after 30 days of treatment ([1]; 3 months after cessation of treatment, 2AY/2NY 1.2 ml oral per day): 17 | Number of live animals remaining in the groups after 30 days of treatment ([1]; 4 months after cessation of treatment, 2AY/2NY 1.2 ml oral per day): 7 | Number of live animals remaining in the groups after 30 days of treatment ([1]; 5 months after cessation of treatment, 2AY/2NY 1.2 ml oral per day): 3 | Number of live animals remaining in the groups after 30 days of treatment ([1]; 6 months after cessation of treatment, 2AY/2NY 1.2 ml oral per day): 0 | mean weight of rats and standard deviation [1, 5]: all animals dead | mean weight of tumor nodules and standard deviation [1, 5]: all animals dead | mean weight of rats and standard deviation [2]: 188.3 ± 8.3 g | mean weight of tumor nodules and standard deviation [2]: 2.87 ± 2.54 g

O=NN(CCCl)C(=O)NCCCl [BCNU, chloroethylnitrosourea]
Number of live animals remaining in the groups after 30 days of treatment ([3]; 0 month after cessation of treatment, 2AY/2NY 0.5 ml oral per day): 30 | Number of live animals remaining in the groups after 30 days of treatment ([3]; 1 month after cessation of treatment, 2AY/2NY 0.5 ml oral per day): 21 | survival outcome during the experiment ([3]; 2NY 0.5 ml oral per day, 30 days, observed over 6 months): all died during the experiment | Number of live animals remaining in the groups after 30 days of treatment ([3]; 2 months after cessation of treatment, 2AY/2NY 0.5 ml oral per day): 15 | Number of live animals remaining in the groups after 30 days of treatment ([3]; 3 months after cessation of treatment, 2AY/2NY 0.5 ml oral per day): 4 | Number of live animals remaining in the groups after 30 days of treatment ([3]; 4 months after cessation of treatment, 2AY/2NY 0.5 ml oral per day): 0 | Number of live animals remaining in the groups after 30 days of treatment ([3]; 5 months after cessation of treatment, 2AY/2NY 0.5 ml oral per day): 0 | Number of live animals remaining in the groups after 30 days of treatment ([3]; 6 months after cessation of treatment, 2AY/2NY 0.5 ml oral per day): 0 | mean weight of mice and standard deviation [3, 6]: all animals dead | mean weight of tumor nodules and standard deviation [3, 6]: all animals dead | mean weight of mice and standard deviation [4]: 18.4 ± 3.4 g | mean weight of tumor nodules and standard deviation [4]: 1.02 ± 0.52 mg
